Data on one compound can be found in US8816095B2, “Na channels, disease, and related assays and compositions” (Georgetown University, priority 2008, dated 2014).

Data set [1] relates to PC-3 cells. As to the kind of experiment: PC-3 cell growth inhibition assay (WST-8). It counts as cell-based. To be noted: Homo sapiens, WST-8, 48 hours. As for the experimental part: The effect of compound 2 was studied on the proliferation of human androgen independent prostate cancer (PC-3) cells, using a cell viability assay with WST-8. […].
PC-3 cells were added to the wells of a 96 well plate at 7500 cells per well in 100 uL of RPMI medium with 10% serum and allowed to plate down overnight. The medium was then removed and replaced with serum free medium containing the appropriate concentration of drug. DMSO concentration was kept below 1%. At this time WST-8 cell counting reagent was added to the control (T=0) wells and allowed to incubate for 2 hours and the absorbance was read at 450 nm to determine the starting number of cells per well. The plates were incubated for 48 hours, the medium was removed and the wells were washed with 100 uL of PBS. The PBS was removed that the wells were filled with 110 uL of serum free RPMI media containing the WST-8 reagent. After two hours of incubation, the plates absorbance was read at 450 nm and normalized to the control value.
Background: Formazan colour is commonly taken as a measure of viable cells.

Data set [2] has as its target T1, hERG potassium channels (Homo sapiens, UniProt Q12809).
T1 construct: expressed in transfected cells; host or cells: HEK-293 (membranes)
As to the kind of experiment: hERG binding assay ([35S]MK-499 displacement). As to conditions: [35S]MK-499, HEK-293 hERG membranes. The source says: All four compounds were also counter-screened for human ether-a-go-go-related gene (hERG) activity against the radio-ligand MK-0499. Blockade of hERG K^+ channels is widely regarded as the predominant cause of drug-induced QT prolongation. (Aronov, A J Med Chem. 2006 Nov. 16; 49(23):6917-21).
MK-499, a potent hERG blocker, was used in a ligand binding assay to evaluate the binding of test compounds to hERG potassium channels as previously described (Wang, J et al. Am J Physiol Heart Circ Physiol, 2003, 284: H256-H267).^2 Test compounds were incubated with 0.05 nM of radiolabeled MK-499 ([35S]MK-499; specific Activity=1,279,010 μCi/μmol) in an assay buffer solution (70 mM NaCl, 60 mM KCl, 10 mM HEPES/NaOH (pH 7.4), 2 mM MgCl2, 1 mM CaCl2) also containing membranes isolated from HEK-293 cells stably expressing hERG channels in 96 well polypropylene deep-well assay plates at room temperature (25° C.) for >90 min. Assay plates were rinsed three time with buffer (130 mM NaCl, 10 mM HEPES/NaOH (pH 7.4), 2 mM MgCl2, 1 mM CaCl2) and the solution transferred to a Packard FilterMate Universal Harvester apparatus and filtered using PerkinElmer UniFilter-96 GF/C 96-well white microplates pre-soaked with 0.3% BSA (10 mL/L of 30% BSA). Plates were dried overnight at 37° C., or for 2 hrs at 56° C. The bottom of the plates were sealed and 0.025 mL of Microscint 0 was added to each well. The plates were top sealed and counted for 2 min/well in a Packard TopCount Scintillation counter. Test compounds were evaluated in a five point titration format using half-log steps from 0.3 μM to 30 μM. […] Less than 5% of the added radioactivity was retained on the filters. Assays were performed in triplicate.
In general terms: hERG is a cardiac potassium channel; its block is linked to QT prolongation.

The target of data set [3] is T2, hNav1.7 (Homo sapiens, UniProt Q15858).
T2 construct: expressed in transfected cells; host or cells: HEK293
T2 sequence (Q15858 whole entry): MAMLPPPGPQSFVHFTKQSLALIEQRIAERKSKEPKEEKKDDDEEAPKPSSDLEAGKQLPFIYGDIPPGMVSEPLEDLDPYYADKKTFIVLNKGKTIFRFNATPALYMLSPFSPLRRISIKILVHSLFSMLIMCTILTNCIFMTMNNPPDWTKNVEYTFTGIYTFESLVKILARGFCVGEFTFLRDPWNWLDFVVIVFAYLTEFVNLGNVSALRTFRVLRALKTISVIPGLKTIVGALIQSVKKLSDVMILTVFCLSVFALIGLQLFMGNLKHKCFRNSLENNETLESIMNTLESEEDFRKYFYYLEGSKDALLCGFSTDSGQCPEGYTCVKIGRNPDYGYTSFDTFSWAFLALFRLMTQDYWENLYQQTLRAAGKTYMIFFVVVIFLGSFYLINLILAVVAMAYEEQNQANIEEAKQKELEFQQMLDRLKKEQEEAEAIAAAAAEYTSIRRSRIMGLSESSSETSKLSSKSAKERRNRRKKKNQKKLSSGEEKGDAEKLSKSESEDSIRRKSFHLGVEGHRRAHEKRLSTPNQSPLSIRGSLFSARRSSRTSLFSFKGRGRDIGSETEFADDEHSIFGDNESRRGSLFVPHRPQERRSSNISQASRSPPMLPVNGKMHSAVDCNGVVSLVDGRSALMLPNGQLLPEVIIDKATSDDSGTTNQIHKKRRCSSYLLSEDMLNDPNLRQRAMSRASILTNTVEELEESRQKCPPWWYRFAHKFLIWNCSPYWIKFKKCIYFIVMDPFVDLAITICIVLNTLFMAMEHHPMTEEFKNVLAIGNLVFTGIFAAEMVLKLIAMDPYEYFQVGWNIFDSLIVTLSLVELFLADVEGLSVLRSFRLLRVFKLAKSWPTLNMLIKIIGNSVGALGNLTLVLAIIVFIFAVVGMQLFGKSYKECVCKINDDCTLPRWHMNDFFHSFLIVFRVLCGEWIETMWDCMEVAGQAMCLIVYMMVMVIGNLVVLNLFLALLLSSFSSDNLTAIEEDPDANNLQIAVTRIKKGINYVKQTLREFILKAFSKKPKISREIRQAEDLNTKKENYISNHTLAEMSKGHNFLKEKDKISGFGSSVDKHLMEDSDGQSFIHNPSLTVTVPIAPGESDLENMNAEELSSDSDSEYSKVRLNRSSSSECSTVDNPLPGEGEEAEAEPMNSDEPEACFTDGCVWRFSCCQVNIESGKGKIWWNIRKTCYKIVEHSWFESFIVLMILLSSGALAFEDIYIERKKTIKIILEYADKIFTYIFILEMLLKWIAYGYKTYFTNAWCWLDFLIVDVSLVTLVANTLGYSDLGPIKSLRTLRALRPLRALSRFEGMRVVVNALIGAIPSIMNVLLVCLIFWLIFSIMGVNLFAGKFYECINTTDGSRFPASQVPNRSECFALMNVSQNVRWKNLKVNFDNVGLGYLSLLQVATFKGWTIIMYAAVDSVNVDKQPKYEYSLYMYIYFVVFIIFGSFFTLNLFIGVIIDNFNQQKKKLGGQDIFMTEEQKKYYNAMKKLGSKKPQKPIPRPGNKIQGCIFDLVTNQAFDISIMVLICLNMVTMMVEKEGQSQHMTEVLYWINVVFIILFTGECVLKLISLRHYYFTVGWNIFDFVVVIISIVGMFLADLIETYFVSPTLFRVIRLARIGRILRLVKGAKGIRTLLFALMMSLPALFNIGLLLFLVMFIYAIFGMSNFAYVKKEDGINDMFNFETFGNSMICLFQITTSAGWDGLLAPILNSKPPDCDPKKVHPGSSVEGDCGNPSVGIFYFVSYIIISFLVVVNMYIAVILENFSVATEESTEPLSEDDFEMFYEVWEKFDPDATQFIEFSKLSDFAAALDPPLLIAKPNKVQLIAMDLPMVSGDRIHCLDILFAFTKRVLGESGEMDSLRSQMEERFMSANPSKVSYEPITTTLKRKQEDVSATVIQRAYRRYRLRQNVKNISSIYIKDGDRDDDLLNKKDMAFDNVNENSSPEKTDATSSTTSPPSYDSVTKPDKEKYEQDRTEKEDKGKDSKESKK
Nature of the data set: Fluorescent (FRET) based sodium channel assay, hNav1.7. To be noted: HEK293 stably transfected with hNav1.7, 20 μM veratridine, read-out: hNav 1.7 IC50. It counts as cell-based. As for the experimental part: (§1) Two isoforms of the channel were examined: hNav1.5, a cardiac sodium channel associated with arrhythmias, and hNav1.7, an isoform found in the peripheral nervous system.
HEK293 cells stably transfected with either hNav1.5 or hNav1.7 were plated at approximately 11,000-20,000 cells/well in flat bottom, poly-D-lysine coated black-wall, clear-bottom, 384-well plates (Becton Dickinson, Bedford, Mass.), and incubated overnight at 37° C. in a 10% CO2 atmosphere in growth medium. Cells were washed with 0.03 mL of Dulbecco's phosphate buffered saline (D-PBS) containing calcium and magnesium. Cells were then incubated with 0.025 mL of a solution containing 10 μM CC2-DMPE and 0.02% pluronic acid in D-PBS with calcium and magnesium; supplemented with 10 mM glucose, and 10 mM Hepes-NaOH, pH 7.4. […] Afterwards, cells were incubated in the dark at 25° C. for 45 min with 0.025 mL of a solution containing 5 μM DiSBAC2(3) in VIPR-S, in the absence or presence of test compound. At the end of the incubation period, the plate was placed in a FLIPR TETRA instrument (MDS Analytical Technologies, Sunnyvale Calif.), illuminated at 390-420 nm, and fluorescence emissions were recorded at approximately 1 Hz at 460 and 580 nm. Following a 7 second baseline reading, 0.025 mL of VIPR-S containing 10 μM veratridine for Nav1.5 or 20 μM veratridine for Nav1.7 was added to each well, and the emissions of both dyes were recorded for an additional 33 seconds. The change in fluorescence resonance energy transfer (FRET) ratio (F/F0) was calculated as: F/F0=((A460/A580/(I460/I580) where A and I represent the readings after or before addition of veratridine, respectively, at the indicated wavelengths. For I, the readings from 2-5 seconds were averaged, and for A, readings from 3 seconds after the signal had reached a plateau level (usually within 30-40 s) were also averaged. Triplicate measurements were performed for each experimental condition and the data were averaged.

For data set [4], the system named is neuronal VGSCs. To be noted: read-out: inactivated state-dependent blocking activity IC50 in neuronal VGSCs; cited from earlier work.
Data set [5] concerns the target T3, hNav1.5 (Homo sapiens, UniProt Q14524).
T3 construct: expressed in transfected cells; host or cells: HEK293
As to the kind of experiment: Fluorescent (FRET) based sodium channel assay, hNav1.5. It counts as cell-based. To be noted: HEK293 stably transfected with hNav1.5, 10 μM veratridine, read-out: hNav 1.5 IC50. As for the experimental part:
as §1
HEK293 cells stably transfected with either hNav1.5 or hNav1.7 were plated at approximately 11,000-20,000 cells/well in flat bottom, poly-D-lysine coated black-wall, clear-bottom, 384-well plates (Becton Dickinson, Bedford, Mass.), and incubated overnight at 37° C. in a 10% CO2 atmosphere in growth medium. Cells were washed with 0.03 mL of Dulbecco's phosphate buffered saline (D-PBS) containing calcium and magnesium. Cells were then incubated with 0.025 mL of a solution containing 10 μM CC2-DMPE and 0.02% pluronic acid in D-PBS with calcium and magnesium; supplemented with 10 mM glucose, and 10 mM Hepes-NaOH, pH 7.4. […] At the end of the incubation period, the plate was placed in a FLIPR TETRA instrument (MDS Analytical Technologies, Sunnyvale Calif.), illuminated at 390-420 nm, and fluorescence emissions were recorded at approximately 1 Hz at 460 and 580 nm. Following a 7 second baseline reading, 0.025 mL of VIPR-S containing 10 μM veratridine for Nav1.5 or 20 μM veratridine for Nav1.7 was added to each well, and the emissions of both dyes were recorded for an additional 33 seconds. […]

Data set [6] deals with site 2 of the VGSC. Nature of the data set: [3H]-BTX-B displacement assay at site 2. It counts as binding, rat.
The test system of data set [7] is PC-3 cells. As to the kind of experiment: PC-3 MTT cell viability assay. It counts as cell-based. To be noted: Homo sapiens, read-out: GI50 ± SEM (10 μM), DPH and JDA-3-135 previously determined. The source says:
Following the determination that compound CDPNS inhibits the VGSCs that are present in androgen independent PC-3 cells, a 3-(4,5-Dimethylthiazol-2-yl)-2,5-diphenyltetrazolium bromide (MTT) cell viability assay was utilized to measure the ability of compound CDPNS to inhibit PC-3 cell growth via VGSC blockade. In this experiment data yielded from CDPNS was compared to previously determined DPH and JDA-3-135 antiproliferation data (Table 10).

Where only a bound is given, the exact number is not on record here.

T1 sequence (Q12809 whole entry): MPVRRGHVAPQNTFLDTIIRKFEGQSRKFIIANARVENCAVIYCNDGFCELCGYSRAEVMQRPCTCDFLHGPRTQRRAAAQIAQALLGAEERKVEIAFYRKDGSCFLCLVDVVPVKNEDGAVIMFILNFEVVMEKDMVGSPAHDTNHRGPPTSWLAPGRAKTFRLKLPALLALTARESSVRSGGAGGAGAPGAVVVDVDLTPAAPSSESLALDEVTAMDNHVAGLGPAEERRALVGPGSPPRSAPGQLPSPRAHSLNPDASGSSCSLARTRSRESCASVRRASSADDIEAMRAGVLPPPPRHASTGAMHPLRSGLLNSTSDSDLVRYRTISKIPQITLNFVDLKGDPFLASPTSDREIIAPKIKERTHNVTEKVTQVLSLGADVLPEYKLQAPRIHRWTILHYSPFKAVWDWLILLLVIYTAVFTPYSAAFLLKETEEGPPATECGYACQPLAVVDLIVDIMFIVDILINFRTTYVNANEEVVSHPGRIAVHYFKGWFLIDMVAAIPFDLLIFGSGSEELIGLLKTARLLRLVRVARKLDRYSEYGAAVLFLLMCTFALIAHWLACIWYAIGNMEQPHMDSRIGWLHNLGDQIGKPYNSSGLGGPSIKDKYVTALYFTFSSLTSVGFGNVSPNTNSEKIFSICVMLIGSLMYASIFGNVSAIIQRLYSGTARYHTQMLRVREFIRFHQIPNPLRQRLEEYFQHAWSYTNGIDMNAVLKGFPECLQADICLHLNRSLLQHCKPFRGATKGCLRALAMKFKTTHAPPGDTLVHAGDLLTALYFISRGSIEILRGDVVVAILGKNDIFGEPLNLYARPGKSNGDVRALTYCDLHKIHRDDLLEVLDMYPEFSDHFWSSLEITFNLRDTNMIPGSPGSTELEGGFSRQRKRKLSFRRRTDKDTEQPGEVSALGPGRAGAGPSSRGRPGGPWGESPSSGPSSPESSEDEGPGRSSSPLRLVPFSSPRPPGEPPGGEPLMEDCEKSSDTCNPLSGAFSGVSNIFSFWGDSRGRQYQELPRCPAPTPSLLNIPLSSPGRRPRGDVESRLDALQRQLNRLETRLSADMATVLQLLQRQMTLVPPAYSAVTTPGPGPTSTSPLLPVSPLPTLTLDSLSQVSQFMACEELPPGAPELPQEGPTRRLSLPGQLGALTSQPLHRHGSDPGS
T3 sequence (Q14524 whole entry): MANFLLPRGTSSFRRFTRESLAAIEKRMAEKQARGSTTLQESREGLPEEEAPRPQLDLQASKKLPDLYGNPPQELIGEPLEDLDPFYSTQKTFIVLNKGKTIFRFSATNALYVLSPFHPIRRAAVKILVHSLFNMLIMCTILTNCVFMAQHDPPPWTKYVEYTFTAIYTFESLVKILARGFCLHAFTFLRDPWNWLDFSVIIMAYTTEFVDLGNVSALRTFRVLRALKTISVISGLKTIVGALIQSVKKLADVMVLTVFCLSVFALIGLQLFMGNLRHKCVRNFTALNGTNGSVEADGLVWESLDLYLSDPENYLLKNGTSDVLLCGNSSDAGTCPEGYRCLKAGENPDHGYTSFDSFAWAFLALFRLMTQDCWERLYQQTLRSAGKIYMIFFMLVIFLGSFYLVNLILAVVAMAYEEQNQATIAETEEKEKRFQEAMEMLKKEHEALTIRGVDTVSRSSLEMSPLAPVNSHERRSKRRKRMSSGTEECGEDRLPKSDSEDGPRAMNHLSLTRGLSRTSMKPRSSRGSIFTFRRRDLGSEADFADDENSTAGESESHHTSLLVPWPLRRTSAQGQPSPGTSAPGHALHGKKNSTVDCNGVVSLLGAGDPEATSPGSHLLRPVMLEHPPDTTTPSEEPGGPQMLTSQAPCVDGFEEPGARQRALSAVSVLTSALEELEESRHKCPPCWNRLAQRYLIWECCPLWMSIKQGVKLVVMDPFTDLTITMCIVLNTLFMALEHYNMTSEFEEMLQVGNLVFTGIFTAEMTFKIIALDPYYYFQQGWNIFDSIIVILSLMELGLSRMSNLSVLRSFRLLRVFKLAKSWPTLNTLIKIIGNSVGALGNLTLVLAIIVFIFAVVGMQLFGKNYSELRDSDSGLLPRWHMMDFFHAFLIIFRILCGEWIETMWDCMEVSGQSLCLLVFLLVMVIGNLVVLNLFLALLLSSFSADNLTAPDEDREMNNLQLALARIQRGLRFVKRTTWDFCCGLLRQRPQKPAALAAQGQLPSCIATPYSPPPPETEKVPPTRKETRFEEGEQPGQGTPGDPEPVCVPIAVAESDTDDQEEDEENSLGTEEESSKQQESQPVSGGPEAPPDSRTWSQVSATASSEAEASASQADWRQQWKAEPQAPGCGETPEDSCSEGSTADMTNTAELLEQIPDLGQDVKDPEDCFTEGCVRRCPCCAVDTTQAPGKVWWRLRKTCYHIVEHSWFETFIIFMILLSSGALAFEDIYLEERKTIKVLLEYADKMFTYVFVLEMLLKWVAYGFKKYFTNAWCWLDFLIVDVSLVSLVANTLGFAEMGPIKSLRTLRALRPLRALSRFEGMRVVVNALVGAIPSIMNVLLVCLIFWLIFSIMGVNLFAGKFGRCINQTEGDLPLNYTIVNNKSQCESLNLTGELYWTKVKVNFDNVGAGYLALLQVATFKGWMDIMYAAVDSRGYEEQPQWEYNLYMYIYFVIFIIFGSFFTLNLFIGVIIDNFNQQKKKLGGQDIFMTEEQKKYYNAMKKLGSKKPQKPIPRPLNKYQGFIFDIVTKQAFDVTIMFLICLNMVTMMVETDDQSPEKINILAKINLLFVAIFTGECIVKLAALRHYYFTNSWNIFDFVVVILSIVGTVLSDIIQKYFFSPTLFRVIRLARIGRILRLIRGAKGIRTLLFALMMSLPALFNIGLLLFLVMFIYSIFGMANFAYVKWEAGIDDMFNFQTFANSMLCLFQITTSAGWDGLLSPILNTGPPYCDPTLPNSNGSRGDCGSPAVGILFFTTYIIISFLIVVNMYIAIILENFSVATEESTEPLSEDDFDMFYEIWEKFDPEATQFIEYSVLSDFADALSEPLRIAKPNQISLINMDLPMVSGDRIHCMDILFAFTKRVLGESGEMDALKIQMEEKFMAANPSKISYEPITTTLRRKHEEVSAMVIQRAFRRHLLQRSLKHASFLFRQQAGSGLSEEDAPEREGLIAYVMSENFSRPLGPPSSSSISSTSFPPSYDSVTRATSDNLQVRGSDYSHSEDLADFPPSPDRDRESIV

As a reminder, the GI50 is the concentration that inhibits growth by half. The IC50 is the point on the concentration scale where inhibition reaches its midpoint. As for `O=C1NC(=O)C(c2ccccc2)(c2ccccc2)N1` [DPH, Diphenylhydantoin, reference compound], the GI50 in data set [1] (read-out: GI50 in PC3 prostate cancer cells), in data set [1] (read-out: PC3 GI50 (μg)) and in data set [7] was more than 100 µM throughout. Further, the “% inhibition for hERG assay, 0.3 μM” value in data set [2] (0.3 μM) was 9%. Moreover, the “% inhibition for hERG assay, 1 μM” value in data set [2] (1 μM) worked out at 20%. Besides, in data set [2] (3 μM), the “% inhibition for hERG assay, 3 μM” value is recorded as 28%. Moreover, in data set [2] (10 μM), the “% inhibition for hERG assay, 10 μM” value was found to be 17%. For the same compound, in data set [2] (30 μM), the “% inhibition for hERG assay, 30 μM” value is listed as 40%. In addition, the figures for the IC50 in data set [3], in data set [4] and in data set [5] were more than 100 µM, 40 µM and more than 100 µM, respectively. The “% [3H]-BTX Inhibition (40 μM)” value in data set [6] (40 μM, rat brain synaptoneurosomes, Table 9) is reported as 30.4 ± 3.3%. Moreover, the “% [3H]-BTX Displacement (40 μm)” value in data set [6] (40 μm, rat brain synaptoneurosomes, Table 13) worked out at 27.7%. The “[3H]-BTX-B Binding Data, Displacement %” value in data set [6] (Screen at 40 μM, 2 replicates, referenced to Aconitine) was found to be 50%.
